Source: publication PMC9080739 (2018)

How the values were obtained:
[1] = system: telo21 (DNA, G4) GGGTTAGGGTTAGGGTTAGGG; assay: fluorescence titration; settings: K+ 60 mM; 10 mM Tris-HCl pH 7.4; ligand 5 μM
[2] = system: ds26 (DNA, duplex) CAATCGGATCGAATTCGATCCGATTG; assay: fluorescence enhancement; settings: K+ 60 mM; Tris-HCl pH 7.4; ligand 5 μM
[3] = system: dA21 (DNA, single strand) AAAAAAAAAAAAAAAAAAAAA; assay: fluorescence enhancement; settings: K+ 60 mM; Tris-HCl pH 7.4; ligand 5 μM

SMILES	K [1]	binding [2]	binding [3]
CN(C)c1ccc(/C=C/c2cccc(/C=C/c3ccc(N(C)C)cc3)[n+]2C)cc1	1.44 ± 0.35 × 10^5 M^-1	weak	weak
CSc1ccc(/C=C/c2cccc(/C=C/c3ccc(SC)cc3)[n+]2C)cc1	1.18 ± 0.21 × 10^5 M^-1	–	–
